Values of other authors as cited in patent publication EP2706070A1, “Combination treatments involving antibodies to human PCSK9” (SANOFI, priority 2012, dated 2014).

Experiments:
[1] = system: LDL-C; details: ezetimibe 10 mg/day added to maximal dose of statins, genotype-confirmed hoFH; cited from earlier work
[2] = elimination (ezetimibe and its glucuronide: from plasma, after oral administration); cited from earlier work

| Compound | total reduction of LDL-C levels [1] | half-life [2] |
| --- | --- | --- |
| O=C1[C@H](CC[C@H](O)c2ccc(F)cc2)[C@@H](c2ccc(O)cc2)N1c1ccc(F)cc1 [ezetimibe] | 27% |  |
| O=C(O)[C@H]1O[C@@H](Oc2ccc([C@@H]3[C@@H](CC[C@H](O)c4ccc(F)cc4)C(=O)N3c3ccc(F)cc3)cc2)[C@H](O)[C@@H](O)[C@@H]1O [ezetimibe-glucuronide] |  | approximately 22 hours |
